No end group written: not given here.
System: HLA-A*0201 positive patients with NSCLC expressing TERT
Assay: Vx-001-201 randomized double blind phase IIb clinical trial (OS, TTF, 12 months survival)
Type: in vivo, human
Conditions: for OS (months) / 12 months OS / 12 months OS (%) / Median TTF (months) / Median survival (months): Vx-001 arm; for HR (OS) / HR (TTF): Vx-001 vs placebo
From the text: The Vx-001-201 study is a randomized, double blind multicenter study done in 70 centers in France, Germany, Spain, Italy, Greece, Poland, Romania and Czech Republic. Key eligibility criteria were a) non small cell lung cancer (NSCLC), b) stage IV or recurrent stage I-III, c) disease control after platinum based first line chemotherapy according to RECIST 1.1 criteria, d) HLA-A*0201 positivity, e) tumors expressing TElomerase Reverse Transcriptase (TERT), f) ECOG 0 or 1 g) absence of brain metastasis.
a) Principal endpoint: overall survival (OS) measured from randomization
b) Secondary endpoints: • Time to Treatment Failure (TTF) measured from randomization • OS at 12 months
Patients who fulfilled all inclusion criteria were randomized within 4 weeks after the end of first line chemotherapy.
The vaccination protocol consisted in six vaccinations at three weeks interval. The optimized Vx-001/TERT572Y was used in the first two vaccinations and the native Vx-001/TERT572 in the following four vaccinations. Patients who continued controlling their disease after the sixth vaccination received boost vaccination with the Vx-001/TERT572 every three months. Vaccination was stopped at disease progression (FIG. 1).
The primary and secondary endpoints were analysed in the Full Analysis Set composed of all patients who fulfilled the […] five main criteria a) NSCLC, b) stage IV or recurrent stage I-III, and c) disease control after first line chemotherapy, d) HLA-A*0201 positivity and e) TERT expressing tumors.
We used the Kaplan-Meier method to estimate OS and TTF in each arm and a Cox proportional hazards regression model to estimate Hazard Ratio (HR) relating OS and TTF to the treatment effect.

[1] = never-smokers and light-smokers (≤25 years, stopped or not), SQ (n = 14)
[2] = never-smokers and light-smokers (≤25 years, stopped or not), Stage IV (n = 51)
[3] = never-smokers and light-smokers (≤25 years, stopped or not), natural immunity No (n = 37)
[4] = never-smokers and light-smokers (≤25 years, stopped or not), natural immunity Yes (n = 15)
[5] = never-smokers and light-smokers (≤25 years, stopped or not), response to treatment OS (n = 28)
[6] = never-smokers and light-smokers (≤25 years, stopped or not), response to treatment SD (n = 32)
[7] = never-smokers or former light-smokers (≤25 years), <65 years (n = 24)
[8] = never-smokers or former light-smokers (≤25 years), >65 years (n = 31)
[9] = never-smokers or former light-smokers (≤25 years), CARBO (n = 37)
[10] = never-smokers or former light-smokers (≤25 years), CDDP (n = 18)
[11] = never-smokers or former light-smokers (≤25 years), Female (n = 23)
[12] = never-smokers or former light-smokers (≤25 years), MH + NSQ (n = 42)
[13] = never-smokers or former light-smokers (≤25 years), Male (n = 32)
[14] = never-smokers or former light-smokers (≤25 years), SQ (n = 13)
[15] = never-smokers or former light-smokers (≤25 years), natural immunity No (n = 33)
[16] = never-smokers or former light-smokers (≤25 years), natural immunity Yes (n = 14)
[17] = never-smokers or former light-smokers (≤25 years), response to chemotherapy OR (n = 26)
[18] = never-smokers or former light-smokers (≤25 years), response to chemotherapy SD (n = 29)
[19] = never-smokers or former light-smokers (≤25 years), stable disease SD after first-line chemotherapy (n = 29)

Vx-001: vaccine composed of two nine-amino-acid peptides, TERT572 (SEQ ID No: 1) and TERT572Y (SEQ ID No: 2), administered separately with adjuvant Montanide ISA51 VG (chain 1 RLFFYRKSV; chain 2 YLFFYRKSV; not fully specified)
OS (months) [1]: 14.1 months | HR (OS) [1]: 0.81 | 12 months OS [2]: 69.2% | OS (months) [2]: 16.2 months | HR (OS) [2]: 0.44 | 12 months OS [3]: 83.0% | OS (months) [3]: 20.7 months | HR (OS) [3]: 0.27 | 12 months OS [4]: 66.0% | OS (months) [4]: 15.3 months | HR (OS) [4]: 0.87 | 12 months OS [5]: 63.6% | OS (months) [5]: 15.3 months | HR (OS) [5]: 0.91 | 12 months OS [6]: 75.0% | OS (months) [6]: 24.7 months | HR (OS) [6]: 0.34 | 12 months OS (%) [7]: 77% | Median TTF (months) [7]: 2.9 months | Median survival (months) [7]: 20.2 months | HR (OS) [7]: 0.46 | HR (TTF) [7]: 1.07 | 12 months OS (%) [8]: 69.2% | Median TTF (months) [8]: 4.6 months | Median survival (months) [8]: 15.3 months | HR (OS) [8]: 0.64 | HR (TTF) [8]: 0.71 | 12 months OS (%) [9]: 64.7% | Median TTF (months) [9]: 2.9 months | Median survival (months) [9]: 15.3 months | HR (OS) [9]: 0.63 | HR (TTF) [9]: 0.90 | 12 months OS (%) [10]: 88.8% | Median TTF (months) [10]: 5.6 months | Median survival (months) [10]: 24.7 months | HR (OS) [10]: 0.50 | HR (TTF) [10]: 0.87 | 12 months OS (%) [11]: 66.6% | Median TTF (months) [11]: 4.2 months | Median survival (months) [11]: 13.3 months | HR (OS) [11]: 0.89 | HR (TTF) [11]: 0.98 | 12 months OS (%) [12]: 73.7% | Median TTF (months) [12]: 4.2 months | Median survival (months) [12]: 16.2 months | HR (OS) [12]: 0.53 | HR (TTF) [12]: 0.89 | 12 months OS (%) [13]: 78.6% | Median TTF (months) [13]: 2.9 months | Median survival (months) [13]: 24.7 months | HR (TTF) [13]: 0.82 | 12 months OS (%) [14]: 71.4% | Median TTF (months) [14]: 2.9 months | Median survival (months) [14]: 14.1 months | HR (OS) [14]: 0.89 | HR (TTF) [14]: 0.81 | 12 months OS (%) [15]: 82.3% | Median TTF (months) [15]: 5.6 months | Median survival (months) [15]: 20.7 months | HR (TTF) [15]: 0.43 | 12 months OS (%) [16]: 66.6% | Median TTF (months) [16]: 2.4 months | Median survival (months) [16]: 15.3 months | HR (OS) [16]: 0.90 | HR (TTF) [16]: 1.86 | 12 months OS (%) [17]: 72.7% | Median TTF (months) [17]: 2.8 months | Median survival (months) [17]: 15.3 months | HR (OS) [17]: 0.96 | HR (TTF) [17]: 1.33 | Median TTF (months) [18]: 3.6 months | HR (TTF) [18]: 0.58 | 12 months OS (%) [19]: 73.3% | Median survival (months) [19]: 24.7 months | Effect on OS (in words) (never/light-smokers (≤25 years, stopped or not), Table 7 population): significantly prolonged OS

Reference: US20200079819A1, “Use of a Vaccine Targeting a Cryptic Tert Epitope, for Treating Lung Cancer in a HLA-A*0201-Positive Never-Smoker or Light-Former Smoker Patient” (Vaxon Biotech, priority 2017, published 2020)
